In patent US6926892B2, “Protecting plants from oomycete pathogens by treatment with compositions containing serratamolide and oocydin a from Serratia marcescens” (HMV Corporation, priority 2000, dated 2005):
Converted amounts (≈) assume the structure as drawn.

Key:
Oomycetes [1] = details: from Strobel et al. 1999 / U.S. Ser. No. 09/858,871; cited from earlier work
Oomycetes [2] = experiment: Minimum inhibitory concentration tests against a number of plant fungal pathogens (summary); format: cell-based; details: e.g., P. cactorum, P. capsici, P. ultimum
Procedure: (§1) 900 μl of potato dextrose broth was placed into the wells of a sterile 24-well culture plate. Serratamolide (in methanol) was added to the wells in concentrations of 0, 3.3, 10, 33 and 100 μg/ml. 20 μl methanol was added to one row to serve as a control. Fungal cultures to be tested were grown on PDA plates for three to five days. Pieces of agar containing the cultures were transferred to sterile microfuge tubes containing 0.5 ml sterile distilled water and broken up using a sterile Teflon pestle. 100 μl of PD broth containing the mycelia was added to each well, and growth inhibition was monitored over 3 days. At the end of 3 days cultures were transferred to a ground glass homogenizer, gently broken up, diluted in distilled water and the optical density measured using a Spectronic 20 spectrophotometer at 660 nm. The minimum inhibitory concentration was determined as the concentration of serratamolide compound needed to effect a 10% reduction in growth.

Phytophthora capsici = experiment: Minimum inhibitory concentration in potato dextrose broth, 24-well plate; format: cell-based; details: 3 days, MIC = concentration needed to effect a 10% reduction in growth (OD 660 nm)
Procedure: as §1

Pythium ultimum = experiment: as above; format: cell-based; details: 3 days, MIC = concentration needed to effect a 10% reduction in growth (OD 660 nm)
Procedure: as §1

Phytophtora parasitica = experiment: as above; format: cell-based; details: 3 days, MIC = concentration needed to effect a 10% reduction in growth (OD 660 nm)
Procedure: as §1

Botrytis cinera = experiment: as above; format: cell-based; details: 3 days, MIC = concentration needed to effect a 10% reduction in growth (OD 660 nm)
Procedure: as §1

Phytophthora cactorum = experiment: as above; format: cell-based; details: 3 days, MIC = concentration needed to effect a 10% reduction in growth (OD 660 nm)
Procedure: as §1

Rhizoctonia solani = experiment: as above; format: cell-based; details: 3 days, MIC = concentration needed to effect a 10% reduction in growth (OD 660 nm)
Procedure: as §1

For CC(=O)OC1CC(=O)O[C@H]2C[C@H](CC/C(Cl)=C\C/C=C\1C)O[C@H]2[C@@H](O)/C=C(\C)CC(=O)O (some centres unmarked) [oocydin A], which “Activity against Oomycetes, MICs relative to metalaxyl” value (Oomycetes [1]) is on record?
The value was “selective lethal activity against Oomycetes at MICs lower or similar to those noted for metalaxyl”.

For CCCCCCC[C@@H]1CC(=O)N[C@@H](CO)C(=O)O[C@H](CCCCCCC)CC(=O)N[C@@H](CO)C(=O)O1 [serratamolide], which “Spectrum of activity among plant pathogens tested” value (Oomycetes [2]) is on record?
The value was “active against Oomycetes only”.

What about the Minimum inhibitory concentration (Phytophthora capsici) of the same compound?
Its Minimum inhibitory concentration is 10 µg/mL (≈ 19.4 µM).

And the Minimum inhibitory concentration (Pythium ultimum)?
Its Minimum inhibitory concentration is 6 µg/mL (≈ 11.7 µM).

What about the Minimum inhibitory concentration (Phytophtora parasitica) of the same compound?
Its Minimum inhibitory concentration is 6 µg/mL (≈ 11.7 µM).

And the Minimum inhibitory concentration (Botrytis cinera)?
Its Minimum inhibitory concentration is greater than 100 µg/mL.

What about the Minimum inhibitory concentration (Phytophthora cactorum) of the same compound?
Its Minimum inhibitory concentration is 60 µg/mL (≈ 117 µM).

What about the Minimum inhibitory concentration (Rhizoctonia solani) of the same compound?
The Minimum inhibitory concentration was greater than 100 µg/mL.
